Data reported in patent publication US10197557B2, “Small molecules for endothelial cell activation” (The Regents of the University of California, priority 2011, dated 2019).
“Also recorded” adds a separate entry of the source.

What was measured:
human endothelial cells = experiment: EC-PBMC co-culture assay, chemokines quantified by cytometric bead arrays; format: cell-based; conditions: for EC activation of octahydro-1,6-naphthyridin-4-one analogs (percent induction relative to IFNγ): focused library of 96 analogs, initial test (FIG. 6A, 6B)
Protocol: FIGS. 9A-9C show a further embodiment of the invention biological platform for the detection of activated endothelium. (A) Primary endothelial cells were seeded to confluence in a 96 well format and activated by IFNγ (10 ng/ml). After 5 hours, IFNγ was removed, wells were washed, and then primary human peripheral blood mononuclear cells (PBMC) were added at a ratio of 3:1 (PBMC:EC). 20-24 hours later, supernatants were removed and chemokines were quantified by cytometric bead arrays. (B) MIP1β production, but not MIP1α or IL8 levels, reliably detects endothelium activated by IFNγ. Chemokines produced in co-culture conditions with quiescent vs. activated EC; data represent the results from n=7 (MIP1α and MIP1β) and n=6 (IL8) independent experiments. (C) Chemical library screen for compounds that activate human endothelium. A 642 compound library was added following the same method as in A and B. Controls included DMSO and IFNγ on each plate. Supernatants were measured for chemokines by cytometric bead arrays.
Activation of the endothelium is intricately linked to innate immunity. […] Therefore we hypothesized that compounds that “activate” the endothelium could be identified indirectly—endothelium encountering activating compounds would gain the capacity to trigger chemokine production by monocytes. To test this hypothesis, we designed an EC-monocyte co-culture system amenable to high-throughput compound screening (FIG. 9A). […] Subsequently, EC were treated with DMSO (vehicle control), IFNγ (EC-activation control), and a collection of 642 compounds (final concentration, […]) (FIG. 9C). Of the 642 compounds, 37 (5.8%) promoted MIP1β production (FIG. 5A).
HUVEC were grown to 80-90% confluency in T150 flasks (Corning). On the day of experiments, HUVEC were harvested and plated at a confluent density in 96 well plates; these were either half or full volume plates, requiring 2.5-5×10^4 EC per well, respectively, in complete EBM-2 media (Lonza). After adherence for 2-3 hours, IFNγ (10 ng/ml), DMSO, or compound library (final concentration, […]) was added in incomplete EBM-2 media (Lonza). After 5 hours, stimuli were removed and cells were gently washed twice with RPMI (Invitrogen), followed by addition of 7.5-10×10^4 human PBMC in 10% FCS. For cytokine analysis, […] was removed at 24 hours for CBA analysis. The biological effects observed were not attributable to either LPS contamination, nor to cellular toxicity, as determined by flow cytometric analysis and 3-(4,5-dimethylhiazol-2-yl)-2,5-diphenyl tetrazolium bromide (MTT) assay.
[…] of supernatant from EC alone, PBMC alone, or co-culture conditions was collected for CBA analysis for IL8, MIP1α, and MIP1β. CBA was performed as per the manufacturer's recommendations (Becton Dickinson). Standard curves and all samples were acquired on a FacsCalibur flow cytometer and data was analyzed using FloJo software.

HUVEC = experiment: Transcriptome profiling (microarray) of treated EC, Ingenuity Pathway Analysis; format: cell-based, human; conditions: 10 μM, 5 hours; for gene probes induced in comparison to vehicle control: fold change >1.25, p-value <0.05
Protocol: HUVEC were grown as described above, and then plated at 1×10^6 in 6 well plates in complete EBM-2. […] After 5 hours, media was removed and RNA was extracted using Trizol (Invitrogen), followed by RNeasy Minelut Cleanup Kit (Qiagen). RNA was taken to the UCLA Microarray Core Center where it was processed using the Human Genome Affymetrix U133 Plus 2.0 Array. Microarray data was analyzed using dChip software (version Nov. 18, 2007) from the Cheng Li Lab at http://biosun1.harvard.edu/complab/dchip. For statistical analysis using dChip software, only gene probes that were minimally present in two of the three replicates were used, and parameters for significance were set at fold change >1.25, p-value <0.05. Total number of probes present for active analogue (D10): 30,228. […] Unsupervised dendrograms were created using dChip software. Genes with known function in immune regulation were selected based on published databases and gene functions identified by Gene Ontology or OMIM; dendrogram was created using dChip software.
Experimental results were compared using student t-tests; results were considered significant if p-value was <0.05. Canonical network analysis for all expressed probes in D10 and E2 datasets was performed by using Ingenuity Pathway Analysis software (version 6.0; Ingenuity Systems).

E-selectin = E-selectin expression on EC by flow cytometric analysis; format: cell-based, human; conditions: in comparison to vehicle control (FIG. 8C)
Protocol: (§1) HUVEC were stimulated with IFNγ, DMSO, or compounds of interest (10 μM) for 5 hours. Stimuli were removed and cells were gently washed and media was replaced with 10% FCS for 24 hours. Cells were stained with anti-ICAM1 and anti-E-selectin, or appropriate isotype antibodies. For intracellular chemokine staining, stimulations of HUVEC were carried out as mentioned above with IFNγ, DMSO and compound of interest. After 8 hours of PBMC and HUVEC co-culture incubation, Golgi Plug (Becton Dickinson) was added to the culture and incubation carried out for an additional 16 hours. After the incubation cells were fixed, permeabilized and stained with anti-CD14 and anti-MIP1b or appropriate isotype controls. Samples were then analyzed with a FacsCalibur flow cytometer and subsequent data analysis was performed using FloJo software.

MIP1β = experiment: Intracellular flow cytometry of EC-PBMC co-cultures (CD14, MIP1β); format: cell-based, human; conditions: PBMC added to activated EC (FIG. 5D)
Protocol: as §1

| Compound | EC activation of octahydro-1,6-naphthyridin-4-one analogs (percent induction relative to IFNγ) (human endothelial cells) | other results |
| --- | --- | --- |
| Cc1ccc(S(=O)(=O)N2[C@H](c3ccccc3)CC(=O)[C@@H]3CN(S(C)(=O)=O)[C@H](c4ccccc4)C[C@@H]32)cc1 [2B2] | lost their activity; also recorded: inactive |  |
| Cc1ccc(S(=O)(=O)N2C[C@H]3[C@@H](O)C[C@@H](c4ccccc4)N(S(=O)(=O)c4ccc(C)cc4)[C@H]3C[C@H]2c2cccc(Cl)c2)cc1 [2B6] | active |  |
| CCO[C@H]1C[C@@H](c2ccccc2)N(S(=O)(=O)c2ccc(C)cc2)[C@H]2C[C@@H](c3cccc(Cl)c3)N(S(=O)(=O)c3ccc(C)cc3)C[C@@H]12 [2B7] | active |  |
| Cc1ccc([C@@H]2C[C@H]3[C@@H](CN2S(=O)(=O)c2ccccc2)C(=O)C[C@@H](c2ccccc2)N3S(=O)(=O)c2ccc(C)cc2)cc1 [C8] | active |  |
| COc1ccc([C@@H]2C[C@H]3[C@@H](CN2S(=O)(=O)c2ccccc2)C(=O)C[C@@H](c2ccc(C)cc2)N3S(=O)(=O)c2ccc(C)cc2)cc1 [C9] | active |  |
| COc1ccc([C@@H]2CC(=O)[C@@H]3CN(S(=O)(=O)c4ccc(C)cc4)[C@H](c4ccccc4)C[C@@H]3N2S(=O)(=O)c2ccccc2)cc1 [D5] | did not exhibit EC-activation; also recorded: inactive |  |
| Cc1ccc([C@@H]2C[C@H]3[C@@H](CN2S(=O)(=O)c2ccc(C)cc2)C(=O)C[C@@H](c2ccc(C)cc2)N3S(=O)(=O)c2ccc(C)cc2)cc1 [D6] | active |  |
| COc1ccc([C@@H]2CC(=O)[C@@H]3CN(S(=O)(=O)c4ccc(C)cc4)[C@H](c4ccc(C)cc4)C[C@@H]3N2S(=O)(=O)c2ccccc2)cc1 [D9] | did not exhibit EC-activation; also recorded: inactive |  |
| CCc1ccc([C@@H]2C[C@H]3[C@@H](CN2S(=O)(=O)c2ccc(C)cc2)C(=O)C[C@@H](c2ccc(CC)cc2)N3S(=O)(=O)c2ccc(C)cc2)cc1 [D10] | active | gene probes induced in comparison to vehicle control (HUVEC; EC): 201 gene probes; canonical pathways engaged (Ingenuity Pathway Analysis) (HUVEC; induced genes of EC): 32 canonical pathways; E-selectin gene induction (HUVEC; microarray, EC): uniquely induced; E-selectin expression levels (protein) (E-selectin): markedly enhanced |
| CCc1ccc([C@@H]2C[C@H]3[C@@H](CN2S(=O)(=O)c2ccc(C)cc2)C(=O)C[C@@H](c2ccc(Cl)cc2)N3S(=O)(=O)c2ccc(C)cc2)cc1 [D11] | active |  |
| CCc1ccc([C@@H]2C[C@H]3[C@@H](CN2S(=O)(=O)c2ccc(C)cc2)C(=O)C[C@@H](c2ccc(OC)cc2)N3S(=O)(=O)c2ccccc2)cc1 [E2] | some activity; also recorded: inactive | gene probes induced in comparison to vehicle control (HUVEC; EC): 49 gene probes; networks related to immune regulation activated (HUVEC; induced genes of EC): did not activate any networks related to immune regulation; EC activation, confirmatory studies (human endothelial cells; validation of analogs, FIG. 6C, two independent experiments in triplicate wells): relatively inactive |
| Cc1ccc(S(=O)(=O)N2C[C@H]3C(=O)C[C@@H](c4ccccc4)N(S(=O)(=O)c4ccc(C)cc4)[C@H]3C[C@H]2c2ccccc2F)cc1 [E3] | active |  |
| COc1ccc([C@@H]2CC(=O)[C@@H]3CN(S(=O)(=O)c4ccc(C)cc4)[C@H](c4ccccc4F)C[C@@H]3N2S(=O)(=O)c2ccccc2)cc1 [E8] | did not exhibit EC-activation; also recorded: inactive |  |
| COc1ccc([C@@H]2CC(=O)[C@@H]3CN(S(=O)(=O)c4ccc(Cl)cc4)[C@H](c4ccc(C)cc4)C[C@@H]3N2S(=O)(=O)c2ccccc2)cc1 [F7] | did not exhibit EC-activation; also recorded: inactive |  |
| COc1ccc([C@@H]2C[C@H]3[C@@H](CN2S(=O)(=O)c2ccccc2)C(=O)C[C@@H](c2ccc(OC)cc2)N3S(=O)(=O)c2ccccc2)cc1 [F10] | did not exhibit EC-activation; also recorded: inactive |  |
| CCOc1cc(-c2ccccc2)nc2c1CN(S(=O)(=O)c1ccc(C)cc1)[C@H](c1cccc(Cl)c1)C2 [G9] | inactive |  |
| Cc1ccc(S(=O)(=O)N2CC[C@H]3[C@@H](C2)C(=O)C[C@@H](c2ccccc2)N3S(=O)(=O)c2ccc(C)cc2)cc1 [H6] | did not affect the naphthyridinone's EC-activation; also recorded: active |  |
| Cc1ccc(S(=O)(=O)N2C[C@H]3C(=O)C[C@@H](c4ccccc4)N(S(C)(=O)=O)[C@H]3C[C@H]2c2ccccc2)cc1 [H11] | lost their activity; also recorded: inactive |  |
| interferon gamma [IFNγ] |  | MIP1α production in co-culture (human endothelial cells; treated EC co-cultured with PBMC (FIG. 10B)): comparable levels; IL8 production from monocytes in co-culture (human endothelial cells; treated EC co-cultured with PBMC, in comparison to DMSO (FIG. 10A)): inhibited; dominant producers of MIP1β in co-culture (MIP1β): CD14+ monocytes |
